The text below walks through data of publication PMC9921896 (Molecules, 2023).

Common to all, as to experiment: CYP inhibition assay in HLM, single concentration
What all share (format): biochemical

The target in one data set is T1, CYP1A2 (Homo sapiens, UniProt P05177).
T1 construct: Using HLM as the enzyme source; from tissue; host or cells: human liver microsomes
T1 sequence (P05177 1-516): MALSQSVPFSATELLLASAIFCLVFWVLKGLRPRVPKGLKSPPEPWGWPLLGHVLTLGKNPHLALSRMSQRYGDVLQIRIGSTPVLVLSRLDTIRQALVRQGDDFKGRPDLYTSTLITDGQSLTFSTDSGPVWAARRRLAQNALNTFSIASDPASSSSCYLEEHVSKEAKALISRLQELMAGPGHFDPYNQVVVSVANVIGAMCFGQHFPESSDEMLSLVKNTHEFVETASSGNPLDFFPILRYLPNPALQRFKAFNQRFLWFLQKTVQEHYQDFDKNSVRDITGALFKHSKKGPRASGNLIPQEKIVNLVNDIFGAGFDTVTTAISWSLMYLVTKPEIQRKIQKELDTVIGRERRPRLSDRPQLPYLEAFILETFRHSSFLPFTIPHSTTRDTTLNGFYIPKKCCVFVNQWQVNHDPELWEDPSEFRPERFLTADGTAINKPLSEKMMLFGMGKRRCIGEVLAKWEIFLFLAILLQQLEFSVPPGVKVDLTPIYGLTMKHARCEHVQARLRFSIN
The note with it: human liver microsomes, probe Phenacetin, n = 3, read-out: % Inhibition (CYP 1A2). The procedure:
(§1) The regulatory bodies and pharmaceutical firms are quite concerned about CYP inhibition. Therefore, medicinal chemists often change the lead structure to decrease CYP inhibition. If left uncorrected, it can cause DDIs, enhanced drug concentration, and, thus, toxicity.
(§2) Using HLM as the enzyme source, the CYP inhibition potential was employed to assess the inhibitory effect of the TbB ligands on the CYP1A2, 2B6, 2C8, 2C9, 2C19, and 2D6 3A4 isoforms. Phenacetin (CYP1A2, […]), tolbutamide (CYP2C9, 20 mM), bupropion (CYP2B6, […]), mephenytoin (CYP2C19, […]), midazolam (CYP3A4, 5 mM), amodiaquine (CYP2C8, 0.02 mM), and dextromethorphan (CYP2D6, 5 mM) were used as probe substrates. The test substance included TbB ligand (final concentrations of […] for each) and HLMs (final concentration of 0.1 mg protein per mL), with or without 1.0 mM NADPH. The reaction was started by adding pre-incubated 25 μ L of NADPH into all wells and incubate at 37 °C for 10 min for 3A4 and 20 min for remaining all isoforms. The reaction was stopped by adding 100 μ L of stop solution to all wells. The samples were centrifuged at 4000 rpm for 10 min at 4 °C. Supernatant (100 μ L) was withdrawn, mixed with 200 μ L of water followed by LC-MS/MS analysis.
Background: Liver microsomes are vesicles of endoplasmic reticulum, rich in cytochrome P450 enzymes.

The next data set deals with T2, CYP2B6 (Homo sapiens, UniProt P20813).
T2 construct: Using HLM as the enzyme source; from tissue; host or cells: human liver microsomes
T2 sequence (P20813 1-491): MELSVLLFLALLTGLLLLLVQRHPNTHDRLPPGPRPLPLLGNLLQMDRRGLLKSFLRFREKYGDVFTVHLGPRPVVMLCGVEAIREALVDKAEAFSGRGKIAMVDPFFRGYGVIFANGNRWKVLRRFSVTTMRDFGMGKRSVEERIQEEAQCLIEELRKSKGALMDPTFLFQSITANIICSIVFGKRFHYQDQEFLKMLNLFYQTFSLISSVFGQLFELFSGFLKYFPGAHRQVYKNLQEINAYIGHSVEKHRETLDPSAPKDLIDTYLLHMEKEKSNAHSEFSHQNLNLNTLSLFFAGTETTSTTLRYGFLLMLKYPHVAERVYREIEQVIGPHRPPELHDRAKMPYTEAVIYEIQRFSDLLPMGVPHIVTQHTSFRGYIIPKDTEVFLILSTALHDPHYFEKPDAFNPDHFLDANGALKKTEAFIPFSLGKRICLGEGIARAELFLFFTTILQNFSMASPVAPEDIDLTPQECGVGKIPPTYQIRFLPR
The note with it: human liver microsomes, probe Bupropion, n = 3, read-out: % Inhibition (CYP 2B6). How it is done:
as §1, §2

The next data set addresses T3, CYP2C19 (Homo sapiens, UniProt P33261).
T3 construct: Using HLM as the enzyme source; from tissue; host or cells: human liver microsomes
The conditions noted are these: human liver microsomes, probe S-Mephenytoin, n = 3, read-out: % Inhibition (CYP 2C19). The procedure:
as §1, §2

For another data set, the target named is T4, CYP2C8 (Homo sapiens, UniProt P10632).
T4 construct: Using HLM as the enzyme source; from tissue; host or cells: human liver microsomes
T4 sequence (P10632 1-490): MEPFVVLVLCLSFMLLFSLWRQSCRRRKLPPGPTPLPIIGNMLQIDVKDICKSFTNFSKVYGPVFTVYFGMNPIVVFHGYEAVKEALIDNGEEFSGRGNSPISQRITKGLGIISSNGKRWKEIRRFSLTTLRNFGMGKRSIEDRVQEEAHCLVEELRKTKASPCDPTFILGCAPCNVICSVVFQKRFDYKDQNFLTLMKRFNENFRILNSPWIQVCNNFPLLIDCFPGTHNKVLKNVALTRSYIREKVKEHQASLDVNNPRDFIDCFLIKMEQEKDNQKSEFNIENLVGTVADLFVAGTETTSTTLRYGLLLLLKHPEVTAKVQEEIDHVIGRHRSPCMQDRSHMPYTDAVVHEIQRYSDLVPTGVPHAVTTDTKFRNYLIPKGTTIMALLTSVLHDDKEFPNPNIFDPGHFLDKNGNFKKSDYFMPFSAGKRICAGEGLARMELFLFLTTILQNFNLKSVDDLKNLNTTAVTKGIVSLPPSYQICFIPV
The conditions noted are these: human liver microsomes, probe Amodiaquine, n = 3, read-out: % Inhibition (CYP 2C8). The procedure:
as §1, §2

For a further data set, the target named is T5, CYP2C9 (Homo sapiens, UniProt P11712).
T5 construct: Using HLM as the enzyme source; from tissue; host or cells: human liver microsomes
The conditions noted are these: human liver microsomes, probe Tolbutamide, n = 3, read-out: % Inhibition (CYP 2C9). How it is done: as §1, §2

The next data set addresses T6, CYP2D6 (Homo sapiens, UniProt P10635).
T6 construct: Using HLM as the enzyme source; from tissue; host or cells: human liver microsomes
The conditions noted are these: human liver microsomes, probe Dextromethorphan, n = 3, read-out: % Inhibition (CYP 2D6). The procedure:
as §1, §2

The next data set addresses T7, CYP3A4 (Homo sapiens, UniProt P08684).
T7 construct: Using HLM as the enzyme source; from tissue; host or cells: human liver microsomes
The conditions noted are these: human liver microsomes, probe Midazolam, n = 3, read-out: % Inhibition (CYP 3A4). The procedure: as §1, §2

T7 sequence (P08684 whole entry): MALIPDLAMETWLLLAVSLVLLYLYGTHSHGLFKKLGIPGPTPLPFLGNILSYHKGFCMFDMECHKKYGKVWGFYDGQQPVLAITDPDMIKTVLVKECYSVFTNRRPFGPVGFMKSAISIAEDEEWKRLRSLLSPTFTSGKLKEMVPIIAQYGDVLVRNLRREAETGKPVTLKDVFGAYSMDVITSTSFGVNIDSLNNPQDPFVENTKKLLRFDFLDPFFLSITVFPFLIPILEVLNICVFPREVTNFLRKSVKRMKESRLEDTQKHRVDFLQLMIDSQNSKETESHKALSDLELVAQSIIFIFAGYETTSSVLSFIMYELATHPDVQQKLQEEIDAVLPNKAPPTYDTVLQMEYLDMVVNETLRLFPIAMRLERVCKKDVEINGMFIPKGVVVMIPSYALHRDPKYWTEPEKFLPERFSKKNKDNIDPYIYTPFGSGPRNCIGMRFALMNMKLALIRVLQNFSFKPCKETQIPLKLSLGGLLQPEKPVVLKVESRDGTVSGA
T6 sequence (P10635 whole entry): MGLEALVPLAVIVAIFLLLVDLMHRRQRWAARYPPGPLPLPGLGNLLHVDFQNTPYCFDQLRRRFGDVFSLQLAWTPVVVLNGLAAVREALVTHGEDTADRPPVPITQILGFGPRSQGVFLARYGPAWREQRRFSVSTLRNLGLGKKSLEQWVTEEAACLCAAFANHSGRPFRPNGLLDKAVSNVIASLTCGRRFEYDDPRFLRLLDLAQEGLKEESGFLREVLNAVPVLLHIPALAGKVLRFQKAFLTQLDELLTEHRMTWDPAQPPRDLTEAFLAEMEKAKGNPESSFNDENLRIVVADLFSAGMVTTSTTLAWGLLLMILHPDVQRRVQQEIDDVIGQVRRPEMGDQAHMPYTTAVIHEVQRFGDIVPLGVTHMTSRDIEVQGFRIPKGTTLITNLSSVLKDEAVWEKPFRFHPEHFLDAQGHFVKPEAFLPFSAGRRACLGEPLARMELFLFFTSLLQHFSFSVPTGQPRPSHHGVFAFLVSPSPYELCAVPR
T5 sequence (P11712 whole entry): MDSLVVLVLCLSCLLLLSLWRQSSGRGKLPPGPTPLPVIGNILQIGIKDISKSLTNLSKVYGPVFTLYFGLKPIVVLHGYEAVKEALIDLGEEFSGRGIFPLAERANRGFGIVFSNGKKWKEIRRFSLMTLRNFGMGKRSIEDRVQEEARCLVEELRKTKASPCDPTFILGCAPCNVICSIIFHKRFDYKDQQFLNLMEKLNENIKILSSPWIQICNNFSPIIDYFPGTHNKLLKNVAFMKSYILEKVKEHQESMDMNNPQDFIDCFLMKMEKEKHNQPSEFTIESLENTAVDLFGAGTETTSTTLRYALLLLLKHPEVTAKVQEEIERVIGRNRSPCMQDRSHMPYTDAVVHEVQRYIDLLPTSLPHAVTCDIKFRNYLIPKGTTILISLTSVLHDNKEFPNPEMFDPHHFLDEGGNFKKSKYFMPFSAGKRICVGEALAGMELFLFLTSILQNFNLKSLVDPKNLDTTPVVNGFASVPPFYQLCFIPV
T3 sequence (P33261 whole entry): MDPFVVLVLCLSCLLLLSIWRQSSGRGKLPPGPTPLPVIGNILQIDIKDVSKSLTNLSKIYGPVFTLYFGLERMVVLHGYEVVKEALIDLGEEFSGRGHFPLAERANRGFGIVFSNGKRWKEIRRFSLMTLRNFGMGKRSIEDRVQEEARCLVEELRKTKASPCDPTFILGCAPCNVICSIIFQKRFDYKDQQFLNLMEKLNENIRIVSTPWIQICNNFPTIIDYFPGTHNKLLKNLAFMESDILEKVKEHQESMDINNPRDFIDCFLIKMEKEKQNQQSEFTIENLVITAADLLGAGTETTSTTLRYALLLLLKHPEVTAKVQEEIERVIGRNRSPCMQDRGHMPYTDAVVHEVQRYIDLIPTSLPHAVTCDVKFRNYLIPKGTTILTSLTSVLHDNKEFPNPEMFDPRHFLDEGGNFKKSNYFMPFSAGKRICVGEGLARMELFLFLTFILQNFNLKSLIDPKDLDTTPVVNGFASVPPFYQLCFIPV

For `COc1cc(-c2nnn(-c3cc(OC)c(O)c(OC)c3)n2)cc(OC)c1O` [223-2], the inhibition at 20 min, 10 µM at CYP1A2 was 33%; on CYP2B6, 47%; at CYP2C19, -2%; at CYP2C8 it was 39%; at CYP2C9, 68%; on CYP2D6, -2%. Further, the inhibition at 10 min, 10 µM at CYP3A4 was -6%.
Take `Oc1ccc(-c2nnn(-c3ccc(O)cc3)n2)cc1` [223-10]: the inhibition at 20 min, 10 µM was 30% at CYP1A2; 54% on CYP2B6; 33% at CYP2C19; 82% on CYP2C8; 90% at CYP2C9; -4% on CYP2D6. In addition, the inhibition at 10 min, 10 µM on CYP3A4 was 22%.
Turning to `Cc1cc(-c2nnn(-c3cc(C)c(O)c(C)c3)n2)cc(C)c1O` [223-3], the inhibition at 20 min, 10 µM at CYP1A2 turned out to be 40%; on CYP2B6, 80%; on CYP2C19, 84%; on CYP2C8, 88%; at CYP2C9, 82%; at CYP2D6 it was 96%. At CYP3A4, the inhibition at 10 min, 10 µM was determined as 96%.

The term inhibition denotes the change of the read-out against control, counted positive when it falls.
